# Key:
# Assay in all cases: relative viability (nuclei count vs DMSO), 5 days (fraction); higher = more cells survive
# AZD5582 + Dasatinib = compound: C[C@@H](C(=O)N[C@@H](C1CCCCC1)C(=O)N2CCC[C@H]2C(=O)N[C@@H]3[C@@H](CC4=CC=CC=C34)OCC#CC#CCO[C@@H]5CC6=CC=CC=C6[C@@H]5NC(=O)[C@@H]7CCCN7C(=O)[C@H](C8CCCCC8)NC(=O)[C@H](C)NC)NC [AZD5582] + Cc1nc(Nc2ncc(C(=O)Nc3c(C)cccc3Cl)s2)cc(N2CCN(CCO)CC2)n1 [Dasatinib] (partner 0.075 µM)
# Summary of the method: (§1)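 Medians of duplicate plates are given as relative viability. That measure is the nuclei count in treated wells divided by the count in vehicle wells. Counts were taken on 4× images of lung cancer cell lines in 1536-well plates, 5 days after pin-tool dosing the day after seeding with one drug alone or a fixed anchor-drug dose plus five library-drug doses (not always all listed) in √10 steps.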
# Temozolomide + OSI-027 = compound: Cn1nnc2c(C(N)=O)ncn2c1=O [Temozolomide] + COc1cccc2cc(-c3nc([C@H]4CC[C@H](C(=O)O)CC4)n4ncnc(N)c34)[nH]c12 [OSI-027] (partner 0.5 µM)
# Summary of the method: as §1
# Temozolomide + Alpelisib = compound: Cn1nnc2c(C(N)=O)ncn2c1=O [Temozolomide] + Cc1nc(NC(=O)N2CCC[C@H]2C(N)=O)sc1-c1ccnc(C(C)(C)C(F)(F)F)c1 [Alpelisib] (partner 2 µM)
# Summary of the method: as §1
# [1] = compound: Cn1nnc2c(C(N)=O)ncn2c1=O [Temozolomide] + O=C(CCCCCCC(=O)Nc1ccccc1)NO [Vorinostat] (partner 1 µM)
# Summary of the method: as §1
Cell Line,relative viability (AZD5582 + Dasatinib; first compound 0.001581 µM),relative viability (AZD5582 + Dasatinib; first compound 0.005 µM),relative viability (AZD5582 + Dasatinib; first compound 0.01581 µM),relative viability (AZD5582 + Dasatinib; first compound 0.05 µM),relative viability (Temozolomide + OSI-027; first compound 0.2 µM),relative viability (Temozolomide + OSI-027; first compound 0.6325 µM),relative viability (Temozolomide + OSI-027; first compound 2 µM),relative viability (Temozolomide + OSI-027; first compound 6.325 µM),relative viability (Temozolomide + OSI-027; first compound 20 µM),relative viability (Temozolomide + Alpelisib; first compound 0.2 µM),relative viability (Temozolomide + Alpelisib; first compound 0.6325 µM),relative viability (Temozolomide + Alpelisib; first compound 2 µM),relative viability (Temozolomide + Alpelisib; first compound 6.325 µM),relative viability (Temozolomide + Alpelisib; first compound 20 µM),relative viability ([1]; first compound 0.2 µM),relative viability ([1]; first compound 0.6325 µM),relative viability ([1]; first compound 2 µM),relative viability ([1]; first compound 6.325 µM),relative viability ([1]; first compound 20 µM)
NCI-H1355,0.638,0.749,0.583,0.719,0.349,0.421,0.455,0.382,0.352,0.834,0.943,0.842,0.815,0.803,0.6,0.638,0.638,0.624,0.583
NCI-H2085,0.265,0.366,0.282,0.355,0.537,0.886,1.05,0.734,0.577,1.01,0.927,0.994,1.1,0.953,0.87,0.816,0.865,0.76,0.68
HOP-62,0.657,0.797,0.506,0.689,1.06,0.854,0.846,0.773,0.908,1.18,1,0.896,0.847,0.814,0.873,0.58,0.675,0.456,0.795
NCI-H2126,0.61,0.678,0.555,0.684,0.686,0.781,0.85,1.12,0.717,0.703,0.753,0.799,0.744,0.752,0.632,0.761,0.817,0.752,0.624
LXF-289,0.228,0.236,0.154,0.13,0.772,0.863,0.927,0.76,0.63,1.06,0.997,1.04,0.992,0.947,0.782,0.826,0.65,0.712,0.712
HCC-366,0.614,0.658,,0.647,0.865,0.856,1.03,0.879,0.921,0.337,0.391,0.456,0.462,0.358,0.443,0.349,0.307,0.315,0.351
RERF-LC-KJ,,,0.723,0.696,0.495,0.6,0.597,0.53,0.554,0.638,0.88,0.923,0.861,0.743,0.602,0.7,0.756,0.646,0.663
NCI-H661,0.866,1.15,0.908,0.873,0.534,0.759,0.737,0.716,0.55,,0.618,0.759,0.714,0.545,0.862,0.789,0.849,0.783,0.691
NCI-H1395,0.437,0.458,0.354,0.46,0.629,0.604,0.686,0.513,0.659,1.15,1.07,1.13,1,1.06,0.901,0.837,0.663,0.569,0.673
SW 900,0.482,0.424,0.393,0.653,0.569,0.618,0.47,0.5,0.744,,,,,,0.741,0.498,0.569,0.373,0.344
COR-L23,0.432,0.647,0.477,0.53,1.01,0.714,0.766,0.814,0.652,0.957,0.851,0.859,0.752,0.662,0.521,0.531,0.521,0.476,0.371
NCI-H1650,0.293,0.352,0.341,0.344,0.638,0.788,0.651,0.596,0.409,,,,,,0.529,0.639,0.578,0.648,0.483
HCC-44,,,,,0.682,0.425,0.477,0.494,0.477,0.811,0.842,0.868,0.786,0.717,1.15,1.09,1.02,1.16,1.06
PC-3 [JPC-3],0.861,0.794,0.97,0.193,0.738,0.78,0.843,0.749,0.269,1.09,0.982,0.979,1.07,0.396,1.21,0.737,0.937,0.732,0.319
Calu-6,,,,,,,,,,1.03,0.989,0.984,0.973,0.977,,,,,
NCI-H1623,0.514,0.582,0.559,0.433,,0.462,0.471,0.388,0.297,,,,,,,,,,
NCI-H1563,0.412,0.456,0.447,0.461,0.781,0.817,0.77,0.789,0.796,0.957,1,1.01,0.861,0.94,,,,,
NCI-H1299,,,,,,,,,,1.11,1.11,1.14,1.04,1.05,,,,,
EBC-1,,,,,,,,,,0.982,0.812,0.918,0.769,0.871,,,,,
A549,,,,,,,,,,0.828,0.738,0.69,0.738,0.773,,,,,
NCI-H522,0.935,0.876,0.846,1.45,0.723,0.729,0.778,0.665,0.648,,,,,,0.762,1.02,1.02,0.973,0.92
NCI-H1792,0.861,0.911,0.819,1.03,0.552,0.739,0.689,0.681,0.736,0.535,0.749,0.677,0.651,0.791,,,,,
